Measured values as given in patent US20240294570A1, “ENZYMATICALLY FORMING INTRANUCLEAR PEPTIDE ASSEMBLIES FOR SELECTIVELY KILLING INDUCED PLURIPOTENT STEM CELLS” (BRANDEIS UNIVERSITY, priority 2021, published 2024).
Non-standard residues stand in square brackets, D forms with d. Residues, ends and D or L forms follow the SMILES beside them. *: point of attachment. pY = N[C@@H](Cc1ccc(OP(=O)(O)O)cc1)C(=O)O; NBD = O=[N+]([O-])c1ccc(*)c2nonc12; βAla = NCCC(=O)O

Test system: iPSCs
Experiment: CLSM imaging of peptide assemblies in iPSCs
Type: cell-based, human
Experimental: Confocal Laser Scanning Microscopy (CLSM) Imaging: For live cell imaging, cells in exponential growth phase were seeded in a confocal dish (3.5 cm) at 1.0×10^5 cells per dish and then incubated in incubator for 24 h. We removed culture medium, and added fresh medium containing precursors for different time points. After removing the medium and washing the cells with live cell imaging solution (2 mL×2), the cells were used for CLSM imaging. For time-dependent live cell imaging, cells in exponential growth phase were seeded in a confocal dish (3.5 cm) at 1.0×10^5 cells per dish and then incubated in incubator for 24 h. After removing culture medium, we treated the cells with 1 mL of Hoechst 33342 (1 μg mL^−1) for 10 minutes. After being washed with culture medium (2 mL×2), the cells were incubated with fresh medium containing precursor 5 in a Tokai Hit stage top incubator (STXF-WSKMX-SET) to be used for CLSM imaging. All the CLSM images were obtained using Zeiss LSM 880 confocal microscopy at the lens of 63× with oil. The lasers used are 405 nm and 488 nm.
Because the fluorescence of NBD increases drastically from unassembled to assembled state, confocal laser scanning microscopy (CLSM) was suitable to reveal the cellular location of the peptide assemblies formed after dephosphorylation catalyzed by ALP. […] The blackness in nuclei overlaps well with the strong fluorescence. […] The results confirms that the nucleus-targeting mainly originates from the ALP catalyzed dephosphorylation.
To trace the dynamics of the formation and distribution of 5 inside iPSC cells, time-lapse CLSM was also used to image the changes of the fluorescence in the iPSCs incubated by 5 (400 μM). Using one cell as a representative case, after 6 minutes incubation fluorescent puncta appear on the membrane, likely originating from the aggregates of assemblies of 5 and those of 6 generated by the dephosphorylation catalyzed by ALP. […] After 24 minutes incubation, fluorescence starts to grow in the cytoplasm. Considering the LLLLY motif in SEQ ID NO: 2 constitutes the transmembrane domains of 18 human membrane proteins, it is possible that the affinity of 5 or 6 to membrane allows the assemblies of the mixture of 5 and 6 to interact with cellular membranes, which then facilitates nuclear localization. At about 28 minutes of incubation, fluorescence appears in the nucleus. Moreover, the nuclei shrink after the assemblies emerge in the nuclei. In addition, the nuclei also show nuclear blebbing (Stephens et al., “Chromatin Histone Modifications and Rigidity Affect Nuclear Morphology Independent of Lamins,” Mol. Biol. Cell 29(2):220-233 (2018), which is hereby incorporated by reference in its entirety). The shrinkage of nuclei and nuclear blebbing likely associate with iPSC death. To further examine the dynamics of EISA-formed peptide assemblies in iPSCs over different time, the increase of fluorescence in two cells over 2 hours was monitored; their nuclei, A and B, are shown in FIG. 10A. […] The mean fluorescent intensity in Nucleus A starts to increase at 28 minutes and levels off after 110 minutes. For Nucleus B, the mean fluorescent intensity keeps increasing from 38 minutes. The increases of the fluorescence in the nuclei and nucleoli are synchronous. […] The assemblies inside the nuclei or near nuclear membrane induce nuclear blebbing and shrinkage of nuclei, which likely contributes to the cell death.

[1] = 400 μM, time-lapse CLSM, one representative cell

CC(C)C[C@H](NC(=O)CCNc1ccc([N+](=O)[O-])c2nonc12)C(=O)N[C@@H](CC(C)C)C(=O)N[C@@H](CC(C)C)C(=O)N[C@@H](CC(C)C)C(=O)N[C@@H](Cc1ccc(OP(=O)(O)O)cc1)C(=O)O [compound 5, NBD-βA-LLLLpY] ({NBD-βAla}-LLLL[pY]-OH)
NBD fluorescence in iPSCs (200 μM): hardly any fluorescence in the cells
NBD fluorescence in iPSCs with ALP inhibitor (400 μM plus DQB 5 μM, 2 hours): little fluorescence in cells
NBD fluorescence in iPSCs (location of peptide assemblies) (400 μM, 2 hours): strong NBD fluorescence in nuclei
incubation time at which fluorescence appears in the nucleus [1]: about 28 minutes
incubation time at which fluorescence starts to grow in the cytoplasm [1]: 24 min
incubation time at which fluorescent puncta appear on the membrane [1]: 6 min
NBD fluorescence in iPSC nuclei (400 μM, treatment time 1 hour): weaker fluorescence
